Patent US10508120B2, “TYK2 inhibitors and uses thereof” (Nimbus Lakshmi, Inc., priority 2017, dated 2019)

Experiments:
Tyk2 kinase domain (DH1) = Tyk2 kinase domain (DH1) (Homo sapiens (Human), UniProt P29597); test: Tyk2 Radioactive Kinase Assay; format: biochemical; conditions: compound at 10 μM; ATP 10 μM; read-out: Tyk2 JH1% Inhibition @ 10 μM
Summary of the method: (§1)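 Single-point screen: 10 μM test compound, radioactive kinase read-out, percent inhibition reported for each kinase domain.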

JAK2 kinase domain (JH1) = JAK2 kinase domain (JH1) (Homo sapiens (Human), UniProt O60674); test: JAK2 Radioactive Kinase Assay; format: biochemical; conditions: compound at 10 μM; ATP 10 μM; read-out: JAK2 JH1% Inhibition @ 10 μM
Summary of the method: as §1

[1] = molecular target: human TYK2 (JH2domain-pseudokinase) (Homo sapiens (Human), UniProt P29597); test: TYK2 JH2 Domain Binding Assay (KINOMEscan)
Summary of the method: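 Kds, run in duplicate, came from Hill fits (slope fixed at −1) of an 11-point 3-fold dilution series starting at 30,000 nM. Bead-retained TYK2 JH2 (aa G556–D888)–NFkB DBD fusion, DNA-tagged and expressed in HEK293 cells, was read by qPCR after 1 h room-temperature binding in 0.9% DMSO.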

JAK2 kinase domain (JH1), sequence (O60674 849-1124): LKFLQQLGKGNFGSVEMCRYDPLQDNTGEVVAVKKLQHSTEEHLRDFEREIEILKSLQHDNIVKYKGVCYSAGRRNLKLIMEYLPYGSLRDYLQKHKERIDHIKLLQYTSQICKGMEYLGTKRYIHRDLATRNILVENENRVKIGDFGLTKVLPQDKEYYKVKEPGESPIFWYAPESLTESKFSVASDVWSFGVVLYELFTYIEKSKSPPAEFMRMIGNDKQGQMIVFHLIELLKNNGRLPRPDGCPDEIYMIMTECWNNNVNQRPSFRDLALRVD
human TYK2 (JH2domain-pseudokinase), sequence (P29597 556-888): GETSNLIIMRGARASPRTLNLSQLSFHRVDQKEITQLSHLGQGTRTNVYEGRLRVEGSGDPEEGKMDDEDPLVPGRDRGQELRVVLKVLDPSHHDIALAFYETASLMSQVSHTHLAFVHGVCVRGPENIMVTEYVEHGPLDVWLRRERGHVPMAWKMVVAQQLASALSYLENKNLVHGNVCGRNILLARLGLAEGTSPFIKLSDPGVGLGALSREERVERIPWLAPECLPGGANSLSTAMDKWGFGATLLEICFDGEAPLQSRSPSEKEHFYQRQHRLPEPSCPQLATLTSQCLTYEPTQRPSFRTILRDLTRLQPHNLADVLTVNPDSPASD
Tyk2 kinase domain (DH1), sequence (P29597 897-1176): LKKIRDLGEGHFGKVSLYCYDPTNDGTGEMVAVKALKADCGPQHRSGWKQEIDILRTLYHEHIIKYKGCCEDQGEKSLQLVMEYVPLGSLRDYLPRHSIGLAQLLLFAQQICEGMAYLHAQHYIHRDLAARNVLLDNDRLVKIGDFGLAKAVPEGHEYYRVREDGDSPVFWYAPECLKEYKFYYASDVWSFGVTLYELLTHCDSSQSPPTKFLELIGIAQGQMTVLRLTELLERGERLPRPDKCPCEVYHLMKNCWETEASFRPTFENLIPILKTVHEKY

SMILES	inhibition at 10 µM (Tyk2 kinase domain (DH1)) [%]	inhibition at 10 µM (JAK2 kinase domain (JH1)) [%]	Kd [1] [nM]
CNc1cc(Nc2cc(C)nc(N3CCCC3=O)c2)nc2c(C(N)=O)cnn12 [I-54]	< 50	< 50	1 to 10
Cc1cc(Nc2cc(N)n3ncc(C(N)=O)c3n2)cc(N2CCCC2=O)n1 [I-55]	< 50	< 50	> 10
Cc1cc(Nc2cc(N)n3ncc(C(N)=O)c3n2)cc(N2CC[C@@H](O)C2)n1 [I-56]	< 50	< 50	> 10
NC(=O)c1cnn2c(N)cc(Nc3cccn(-c4ccon4)c3=O)nc12 [I-57]	< 50	< 50	0.2 to 1
NC(=O)c1cnn2c(N)cc(Nc3cccc(N4CCCC4=O)n3)nc12 [I-58]	< 50	50 to 70	< 0.2
CNc1cc(Nc2cccn([C@H]3CC[C@H](O)CC3)c2=O)nc2c(C(N)=O)cnn12 [I-59]	< 50	< 50	< 0.2
CNc1cc(Nc2cc(C)nc(N3CC[C@@H](O)C3)c2)nc2c(C(N)=O)cnn12 [I-60]	< 50	< 50	1 to 10
CNc1cc(Nc2cc(C)nc(N3CCC[C@@H](O)C3)c2)nc2c(C(N)=O)cnn12 [I-61]	< 50	< 50	0.2 to 1
CNc1cc(Nc2cccn(-c3cnc(C(C)(C)O)cn3)c2=O)nc2c(C(N)=O)cnn12 [I-63]	< 50	< 50	< 0.2
Cc1cc(-n2cccc(Nc3cc(N)n4ncc(C(N)=O)c4n3)c2=O)no1 [I-64]	< 50	< 50	0.2 to 1
CNc1cc(Nc2cccc(N3CCOC3=O)n2)nc2c(C(N)=O)cnn12 [I-65]	< 50	< 50	< 0.2
NC(=O)c1cnn2c(N)cc(Nc3cccc(N4CCOC4=O)n3)nc12 [I-66]	< 50	50 to 70	0.2 to 1
CNc1cc(Nc2cccn(C3CCN(CC(F)F)CC3)c2=O)nc2c(C(N)=O)cnn12 [I-67]	< 50	< 50	< 0.2
CNc1cc(Nc2cccn([C@H]3CC[C@@H](N4CCOCC4)CC3)c2=O)nc2c(C(N)=O)cnn12 [I-68]	< 50	< 50	0.2 to 1
CNc1cc(Nc2ccnn(-c3ccc(F)cc3)c2=O)nc2c(C(N)=O)cnn12 [I-69]	< 50	< 50	0.2 to 1
NC(=O)c1cnn2c(N)cc(Nc3ccnn(-c4ccc(F)cc4)c3=O)nc12 [I-70, 7-amino-5-((2-(4-fluorophenyl)-3-oxo-2,3-dihydropyridazin-4-yl)amino) pyrazolo[1,5-a]pyrimidine-3-carboxamide]	< 50	< 50	1 to 10
CNc1cc(Nc2cc(Cl)cnc2OC2CCOC2)nc2c(C(N)=O)cnn12 (stereo not drawn) [I-71]	< 50	< 50	< 0.2
CNc1cc(Nc2cc(C)nn(-c3cnn(C)c3)c2=O)nc2c(C(N)=O)cnn12 [I-73]	< 50	< 50	1 to 10
Cc1cc(Nc2cc(N)n3ncc(C(N)=O)c3n2)c(=O)n(-c2cnn(C)c2)n1 [I-74]	< 50	< 50	0.2 to 1
CNc1cc(Nc2cc(C)cn(-c3ccnn3C)c2=O)nc2c(C(N)=O)cnn12 [I-75]	< 50	< 50	0.2 to 1
NC(=O)c1cnn2c(N)cc(Nc3cccn([C@H]4CC[C@@H](N5CCOCC5)CC4)c3=O)nc12 [I-76]	< 50	< 50	1 to 10
CC(C)Oc1ncccc1Nc1cc(N)n2ncc(C(N)=O)c2n1 [I-77]	< 50	< 50	0.2 to 1
CNc1cc(Nc2cc(Cl)cnc2OC(C)C)nc2c(C(N)=O)cnn12 [I-78]	< 50	< 50	< 0.2
CC(C)Oc1ncc(Cl)cc1Nc1cc(N)n2ncc(C(N)=O)c2n1 [I-79]	< 50	< 50	0.2 to 1

SMILES	inhibition at 10 µM (Tyk2 kinase domain (DH1)) [%]	inhibition at 10 µM (JAK2 kinase domain (JH1)) [%]	Kd [1] [nM]
CNc1cc(Nc2cc(Cl)cnc2OC2CCC2)nc2c(C(N)=O)cnn12 [I-80]	< 50	< 50	0.2 to 1
NC(=O)c1cnn2c(N)cc(Nc3cc(Cl)cnc3OC3CCC3)nc12 [I-81]	< 50	< 50	1 to 10
NC(=O)c1cnn2c(N)cc(Nc3cc(Cl)cnc3OC3CCOC3)nc12 (stereo not drawn) [I-82, 7-amino-5-((5-chloro-2-((tetrahydrofuran-3-yl)oxy)pyridin-3-yl)amino) pyrazolo[1,5-a]pyrimidine-3-carboxamide]	< 50	< 50	1 to 10
CNc1cc(Nc2cccnc2OC)nc2c(C(=O)NC3COC3)cnn12 [I-83]	< 50	< 50	> 10
CNc1cc(Nc2cccn(-c3ccn(C4CC4)n3)c2=O)nc2c(C(=O)NC3COC3)cnn12 [I-89, 5-((1-(1-cyclopropyl-1H-pyrazol-3-yl)-2-oxo-1,2-dihydropyridin-3-yl)amino)-7-(methylamino)-N-(oxetan-3-yl)pyrazolo[1,5-a]pyrimidine-3-carboxamide]	< 50	< 50	> 10
CNc1cc(Nc2cccnc2OC(F)(F)F)nc2c(C(=O)NC3CC3)cnn12 [I-90]	< 50	< 50	0.2 to 1
CNc1cc(Nc2cccnc2OC(F)(F)F)nc2c(C(N)=O)cnn12 [I-91]	< 50	< 50	< 0.2
CNc1cc(Nc2cccnc2OC(F)(F)F)nc2c(C(=O)NC3COC3)cnn12 [I-92]	< 50	< 50	> 10
CNc1cc(Nc2cc(Cl)cnc2OC2CCC2)nc2c(C(=O)NC3COC3)cnn12 [I-93, 5-((5-chloro-2-cyclobutoxypyridin-3-yl)amino)-7-(methylamino)-N-(oxetan-3-yl)pyrazolo[1,5-a]pyrimidine-3-carboxamide]	< 50	< 50	> 10
CNc1cc(Nc2cc(Cl)cnc2O[C@H]2C[C@@H](OC)C2)nc2c(C(N)=O)cnn12 [I-96]	< 50	< 50	0.2 to 1
CO[C@H]1C[C@@H](Oc2ncc(Cl)cc2Nc2cc(N)n3ncc(C(N)=O)c3n2)C1 [I-97]	< 50	< 50	1 to 10
CNc1cc(Nc2cccn(-c3ccn(C4CC4)n3)c2=O)nc2c(C(=O)NC3CC3)cnn12 [I-98]	< 50	< 50	< 0.2
Cc1cc(Nc2cc(N)n3ncc(C(N)=O)c3n2)c(=O)n(-c2ccnn2C)c1 [I-99]	< 50	< 50	1 to 10
NC(=O)c1cnn2c(N)cc(Nc3cccn(C4CCN(CC(F)F)CC4)c3=O)nc12 [I-100]	< 50	< 50	1 to 10
Nc1cc(Nc2cccc(N3CCCC3=O)n2)nc2c(C(=O)NC3COC3)cnn12 [I-101, 7-amino-N-(oxetan-3-yl)-5-((6-(2-oxopyrrolidin-1-yl)pyridin-2-yl)amino)pyrazolo[1,5-a]pyrimidine-3-carboxamide]	< 50	< 50	> 10
NC(=O)c1cnn2c(N)cc(Nc3cccnc3OC(F)(F)F)nc12 [I-102, 7-amino-5-((2-(trifluoromethoxy)pyridin-3-yl)amino)pyrazolo[1,5-a]-pyrimidine-3-carboxamide]	70 to 90	> 90	0.2 to 1
Nc1cc(Nc2cccnc2OC(F)(F)F)nc2c(C(=O)NC3COC3)cnn12 [I-103, 7-amino-N-(oxetan-3-yl)-5-((2-(trifluoromethoxy)pyridin-3-yl)amino)pyrazolo[1,5-a]pyrimidine-3-carboxamide]	< 50	< 50	> 10
CNc1cc(Nc2cccn(-c3cc(C)on3)c2=O)nc2c(C(=O)NC3COC3)cnn12 [I-104]	< 50	< 50	1 to 10
CNc1cc(Nc2cccn(C3CCOC3)c2=O)nc2c(C(N)=O)cnn12 (stereo not drawn) [I-108]	< 50	< 50	0.2 to 1
CNc1cc(Nc2cccn(-c3ccc(F)cc3)c2=O)nc2c(C(=O)NC3COC3)cnn12 [I-109]	< 50	< 50	> 10
CNc1cc(Nc2cc(Cl)cnc2O[C@H]2C[C@H](OC)C2)nc2c(C(N)=O)cnn12 [I-111]	< 50	< 50	0.2 to 1
CNc1cc(Nc2cc(N3CCCC3)nc(C(F)(F)F)c2)nc2c(C(N)=O)cnn12 [I-112]	< 50	< 50	1 to 10
Nc1cc(Nc2cccnc2OC(F)(F)F)nc2c(C(=O)NC3CC3)cnn12 [I-113, 7-amino-N-cyclopropyl-5-((2-(trifluoromethoxy)pyridin-3-yl)amino)pyrazolo[1,5-a]pyrimidine-3-carboxamide]	> 90	> 90	1 to 10
